Assay [1] addresses T1, Interleukin-1 receptor-associated kinase 3 (Homo sapiens) (UniProt Q9Y616).
T1 sequence (whole entry): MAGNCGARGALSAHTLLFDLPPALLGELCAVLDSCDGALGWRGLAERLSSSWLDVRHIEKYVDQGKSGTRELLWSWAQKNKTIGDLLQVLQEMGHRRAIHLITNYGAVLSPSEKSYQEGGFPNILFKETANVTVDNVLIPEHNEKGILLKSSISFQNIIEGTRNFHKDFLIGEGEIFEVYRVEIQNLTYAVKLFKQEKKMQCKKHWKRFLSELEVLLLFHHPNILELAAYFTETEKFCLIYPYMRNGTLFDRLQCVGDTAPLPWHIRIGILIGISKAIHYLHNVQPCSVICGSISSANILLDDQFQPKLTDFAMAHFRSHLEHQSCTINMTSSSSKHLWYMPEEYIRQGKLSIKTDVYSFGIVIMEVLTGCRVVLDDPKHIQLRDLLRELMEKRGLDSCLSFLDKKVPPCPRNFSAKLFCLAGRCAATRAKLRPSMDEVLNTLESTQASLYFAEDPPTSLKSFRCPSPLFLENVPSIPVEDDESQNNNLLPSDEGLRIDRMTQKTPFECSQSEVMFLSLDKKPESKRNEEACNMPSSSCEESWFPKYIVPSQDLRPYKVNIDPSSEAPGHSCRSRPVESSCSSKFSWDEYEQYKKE
The assay is described as follows: Selectivity interaction (ActivX KiNativ screen (ex vivo kinase selectivity in human PBMCs)) EUB0001619a IRAK3. Conditions: PBMC, at 1 µM. It is filed as cell-based.

The target in assay [2] is Serine/threonine-protein kinase pim-3 (Homo sapiens) (UniProt Q86V86). Briefly: Selectivity interaction (KinomeScan (DiscoverX)) EUB0000666a PIM3. Conditions: at 10 µM.
Assay [3] addresses T2, Serine/threonine-protein kinase D1 (Homo sapiens) (UniProt Q15139).
T2 sequence (whole entry): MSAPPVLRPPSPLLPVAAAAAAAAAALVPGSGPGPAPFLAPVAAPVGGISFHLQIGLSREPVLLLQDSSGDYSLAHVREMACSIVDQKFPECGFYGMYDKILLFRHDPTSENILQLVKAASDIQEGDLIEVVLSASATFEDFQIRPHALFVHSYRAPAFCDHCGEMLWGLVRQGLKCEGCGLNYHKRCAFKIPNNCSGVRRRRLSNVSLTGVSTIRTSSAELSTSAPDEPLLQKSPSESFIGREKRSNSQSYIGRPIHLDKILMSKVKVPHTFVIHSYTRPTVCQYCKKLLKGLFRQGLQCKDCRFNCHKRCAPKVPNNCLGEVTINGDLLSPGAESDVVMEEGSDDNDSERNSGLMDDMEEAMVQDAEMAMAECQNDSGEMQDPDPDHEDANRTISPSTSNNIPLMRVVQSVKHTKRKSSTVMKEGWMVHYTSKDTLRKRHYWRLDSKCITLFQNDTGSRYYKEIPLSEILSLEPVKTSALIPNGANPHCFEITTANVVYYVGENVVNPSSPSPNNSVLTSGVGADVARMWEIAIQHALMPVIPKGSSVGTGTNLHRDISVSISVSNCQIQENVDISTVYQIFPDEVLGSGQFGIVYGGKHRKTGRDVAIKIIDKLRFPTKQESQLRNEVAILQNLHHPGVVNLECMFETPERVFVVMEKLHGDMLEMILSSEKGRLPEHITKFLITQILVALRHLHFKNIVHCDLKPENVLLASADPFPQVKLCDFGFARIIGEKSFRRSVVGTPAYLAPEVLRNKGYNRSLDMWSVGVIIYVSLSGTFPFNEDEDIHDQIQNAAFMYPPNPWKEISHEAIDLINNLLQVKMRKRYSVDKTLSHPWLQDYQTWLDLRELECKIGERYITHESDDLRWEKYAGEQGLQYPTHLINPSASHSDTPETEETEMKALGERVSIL
Briefly: Selectivity interaction (SelectScreen profiling (Invitrogen)) EUB0000607a PRKD1. The conditions noted are these: at 2 µM.

Assay [4] concerns the target Mitogen-activated protein kinase 8 (Homo sapiens, UniProt P45983). Briefly: Selectivity interaction (KinomeScan (DiscoverX)) EUB0000045b MAPK8.
Assay [5] deals with 4-aminobutyrate aminotransferase, mitochondrial (Homo sapiens, UniProt P80404). Briefly: Selectivity interaction (GPCR panel (PDSP screen)) EUB0000311b ABAT. The conditions noted are these: at 10 µM.
In assay [6] the target is DNA (cytosine-5)-methyltransferase 3B (Homo sapiens) (UniProt Q9UBC3). The assay is described as follows: Selectivity interaction (PWWP, WD40, and Tudor domain panel (DSLS measurements, literature)) EUB0000270b DNMT3B.
In assay [7] the target is Serine/threonine-protein kinase 33 (Homo sapiens) (UniProt Q9BYT3). Briefly: Selectivity interaction (KinomeScan (DiscoverX)) EUB0000618a STK33. The conditions noted are these: at 10 µM.
Assay [8] has as its target T3, Protein kinase C iota type (Homo sapiens) (UniProt P41743).
T3 sequence (whole entry): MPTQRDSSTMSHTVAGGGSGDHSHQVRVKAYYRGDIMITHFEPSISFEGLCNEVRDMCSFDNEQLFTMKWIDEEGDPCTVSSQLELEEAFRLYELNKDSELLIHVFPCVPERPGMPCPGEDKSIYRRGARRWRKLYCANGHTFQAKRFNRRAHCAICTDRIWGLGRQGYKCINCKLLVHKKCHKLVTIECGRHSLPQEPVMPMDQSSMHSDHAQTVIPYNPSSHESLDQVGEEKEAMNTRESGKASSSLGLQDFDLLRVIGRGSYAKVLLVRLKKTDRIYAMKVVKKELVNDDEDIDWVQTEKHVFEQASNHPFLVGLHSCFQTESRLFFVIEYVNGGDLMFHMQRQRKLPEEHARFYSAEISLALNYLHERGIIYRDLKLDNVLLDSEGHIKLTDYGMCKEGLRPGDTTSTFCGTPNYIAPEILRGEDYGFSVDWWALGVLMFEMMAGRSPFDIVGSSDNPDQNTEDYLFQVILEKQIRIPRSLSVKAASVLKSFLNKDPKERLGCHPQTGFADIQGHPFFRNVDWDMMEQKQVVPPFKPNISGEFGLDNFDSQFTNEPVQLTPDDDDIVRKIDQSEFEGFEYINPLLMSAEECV
The assay is described as follows: Selectivity interaction (KinomeScan (DiscoverX)) EUB0000229b PRKCI. Conditions: at 10 µM.

Sequence of Mitogen-activated protein kinase 8 (P45983 whole entry): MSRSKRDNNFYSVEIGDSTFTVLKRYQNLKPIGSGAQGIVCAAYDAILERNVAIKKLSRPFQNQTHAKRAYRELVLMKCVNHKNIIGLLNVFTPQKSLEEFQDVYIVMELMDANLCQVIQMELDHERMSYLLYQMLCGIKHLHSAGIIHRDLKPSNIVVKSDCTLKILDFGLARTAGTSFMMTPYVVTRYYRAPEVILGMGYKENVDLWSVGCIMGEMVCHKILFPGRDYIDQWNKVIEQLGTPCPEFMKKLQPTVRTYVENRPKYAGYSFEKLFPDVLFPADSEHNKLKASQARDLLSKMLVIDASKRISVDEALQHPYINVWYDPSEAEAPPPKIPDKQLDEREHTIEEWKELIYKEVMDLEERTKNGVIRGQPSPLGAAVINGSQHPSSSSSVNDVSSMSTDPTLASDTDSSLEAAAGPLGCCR
Sequence of Serine/threonine-protein kinase 33 (Homo sapiens) (Q9BYT3 whole entry, looked up): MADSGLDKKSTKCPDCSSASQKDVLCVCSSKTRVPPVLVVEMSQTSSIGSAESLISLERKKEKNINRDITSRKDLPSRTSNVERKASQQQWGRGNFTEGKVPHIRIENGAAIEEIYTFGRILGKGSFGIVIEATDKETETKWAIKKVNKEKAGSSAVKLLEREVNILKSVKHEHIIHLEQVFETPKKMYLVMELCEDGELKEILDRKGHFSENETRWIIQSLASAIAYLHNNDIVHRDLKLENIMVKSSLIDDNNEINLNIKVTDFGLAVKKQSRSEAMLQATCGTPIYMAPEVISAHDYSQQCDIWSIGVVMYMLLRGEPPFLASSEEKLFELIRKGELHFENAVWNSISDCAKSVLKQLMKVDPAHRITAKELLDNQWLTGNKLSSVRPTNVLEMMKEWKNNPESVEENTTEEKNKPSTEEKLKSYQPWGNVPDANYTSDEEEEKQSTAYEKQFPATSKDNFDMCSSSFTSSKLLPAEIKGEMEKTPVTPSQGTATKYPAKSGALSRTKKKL
Sequence of 4-aminobutyrate aminotransferase, mitochondrial (P80404 whole entry, the tested form may be a part): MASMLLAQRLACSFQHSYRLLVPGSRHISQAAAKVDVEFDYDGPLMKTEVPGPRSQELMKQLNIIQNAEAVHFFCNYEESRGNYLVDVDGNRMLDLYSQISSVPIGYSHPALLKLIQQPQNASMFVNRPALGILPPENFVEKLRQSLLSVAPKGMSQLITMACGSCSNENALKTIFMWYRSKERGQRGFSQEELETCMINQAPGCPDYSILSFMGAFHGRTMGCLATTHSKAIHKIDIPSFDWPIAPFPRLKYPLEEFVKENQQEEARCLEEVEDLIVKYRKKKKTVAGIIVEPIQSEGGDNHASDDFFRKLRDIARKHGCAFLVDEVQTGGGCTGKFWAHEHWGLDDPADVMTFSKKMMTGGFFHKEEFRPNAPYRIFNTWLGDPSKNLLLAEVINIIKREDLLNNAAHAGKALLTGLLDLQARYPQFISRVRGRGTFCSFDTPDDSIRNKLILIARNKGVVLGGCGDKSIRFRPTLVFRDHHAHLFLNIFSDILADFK

In the case of `N#Cc1cccc(-c2c[nH]c3ncnc(N4CCOCC4)c23)c1`, the % of inhibition in assay [1] came to 34%.

`O=C(NOC[C@H](O)CO)c1ccc(F)c(F)c1Nc1ccc(I)cc1F` yielded a % of control in assay [2] of 100%.

Consider `CNC(=O)Nc1ccc(-c2nc(N3CC4CCC(C3)O4)c3cnn(C4CCC5(CC4)OCCO5)c3n2)cc1`, for which the % of inhibition in assay [3] was found to be 0%.

Consider `C=CC(=O)Nc1cc(-n2c(=O)ccc3cnc4ccc(-c5ccc(NS(C)(=O)=O)cc5)cc4c32)ccc1C`, for which the % of control in assay [4] (at 1 µM) is 93%; in assay [4] (at 10 µM), 14%.

Compound `CCc1ccccc1C(=O)Nc1n[nH]c2c(C)c(F)c(C3C(C#N)=C(C)N(C)C(C)=C3C#N)cc12` [BAY-3827] displayed a % of inhibition in assay [5] of 85.6%.

`Cc1cc(CN)cc(C)c1-c1ncn(C)c1-c1cncn1C` registered a dTagg in assay [6] of 0 K.

As for `O[C@H]1CC[C@H](Nc2ncc3nc(Nc4c(F)cc(F)cc4F)n([C@H]4CCOC4)c3n2)CC1`, in assay [7], the % of control was 100%.

Turning to `COc1cc(N(C)c2ccnc3ccc(C(F)(F)F)cc23)cc(OC)c1OC`, the % binding in assay [8] amounted to 82%.

These data come from ChEMBL document CHEMBL5465560, “Selectivity Literature for EUbOPEN Chemogenomic Library” (2024).
